According to patent publication US6806286B2, “Pyrrolecarboxamides and pyrrolethioamides as fungicides” (Syngenta Crop Protection, Inc., priority 2000, dated 2004):

Tests used:
[1] = tested on: Podosphaera leucotricha; assay: Action against Podosphaera leucotricha/apple (powdery mildew on apple); format: in vivo; conditions: apple seedlings cv. McIntosh, spray 0.002% active ingredient, inoculated one day after application, assessed after 12 days incubation
Description: Action Against Podosphaera leucotricha/apple (Powdery Mildew on Apple)
5 week old apple seedlings cv. […] One day after application apple plants are inoculated by shaking plants infected with apple powdery mildew above the test plants. After an incubation period of 12 days at 22° C. and 60% r. h. under a light regime of 14/10 h (light/dark) the disease incidence is assessed.

[2] = tested on: Venturia Inaequalis; assay: Action against Venturia inaequalis/apple (scab on apple); format: in vivo; conditions: apple seedlings cv. McIntosh, spray 0.02% active ingredient, inoculated one day after application, assessed after 4+4+4 days incubation
Description: Action Against Venturia Inaequalis/apple (Scab on Apple)
4 week old apple seedlings cv. […] One day after application apple plants are inoculated by spraying a spore suspension (4×10^5 conidia/ml) on the test plants. After an incubation period of 4 days at 21° C. and 95% r. h. the plants are placed for 4 days at 21° C. and 60% r. h. in a greenhouse. After another 4 day incubation period at 21° C. and 95% r. h. the disease incidence is assessed.

[3] = tested on: Etysiphe graminis; assay: Action against Etysiphe graminis/barley (powdery mildew on barley); format: in vivo; conditions: barley plants cv. Express, spray 0.02% active ingredient, inoculated one day after application, assessed after 6 days incubation
Description: Action Against Etysiphe graminis/barley (Powdery Mildew on Barley)
1 week old barley plants cv. […] One day after application barley plants are inoculated by shaking powdery mildew infected plants above the test plants. After an incubation period of 6 days at 20° C./18° C. (day/night) and 60% r. h. in a greenhouse the disease incidence is assessed.

[4] = tested on: Botryis cinerea; assay: Action against Botryis cinerea/apple (Botrytis on apple fruits); format: in vivo, B. cinerea; conditions: apple fruit cv. Golden Delicious, 30 μl droplets 0.002% active ingredient in drilled holes, inoculated two hours after application, assessed after 7 days
Description: Action Against Botryis cinerea/apple (Botrytis on Apple Fruits)
In an apple fruit cv. […] Two hours after application 50 μl of a spore suspension of B. cinerea (4×10^5 conidia/ml) are pipetted on the application sites. After an incubation period of 7 days at 22° C. in a growth chamber the disease incidence is assessed.

[5] = tested on: Boftis cinerea; assay: Action against Boftis cinerea/grape (Botrytis on grapes); format: in vivo; conditions: grape seedlings cv. Gutedel, spray 0.002% active ingredient, inoculated two days after application, assessed after 4 days incubation
Description: Action Against Boftis cinerea/grape (Botrytis on Grapes)
5 week old grape seedlings cv. […] Two days after application grape plants are inoculated by spraying a spore suspension (1×10^6 conidia/ml) on the test plants. After an incubation period of 4 days at 21° C. and 95% r. h. in a greenhouse the disease incidence is assessed.

[6] = tested on: Botryts cinerea; assay: Action against Botryts cinerea/tomato (Botrytis on tomatoes); format: in vivo; conditions: tomato plants cv. Roter Gnom, spray 0.002% active ingredient, inoculated two days after application, assessed after 4 days incubation
Description: Action Against Botryts cinerea/tomato (Botrytis on Tomatoes)
4 week old tomato plants cv. […] Two days after application tomato plants are inoculated by spraying a spore suspension (1×10^5 conidia/ml) on the test plants. After an incubation period of 4 days at 20° C. and 95% r. h. in a growth chamber the disease incidence is assessed.

[7] = tested on: Puenophora teres; assay: Action against Puenophora teres/barley (net blotch on barley); format: in vivo; conditions: barley plants cv. Express, spray 0.002% active ingredient, inoculated two days after application, assessed 4 days after inoculation
Description: Action Against Puenophora teres/barley (Net Blotch on Barley)
1 week old barley plants cv. […] Two days after application barley plants are inoculated by spraying a spore suspension (3×10^4 conidia/ml) on the test plants. After an incubation period of 2 days at 20° C. and 95% r. h. plants are kept for 2 days at 20° C. and 60% r.h. in a greenhouse. The disease incidence is assessed 4 days after inoculation.

[8] = tested on: Septoria nodorum; assay: Action against Septoria nodorum/wheat (Septoria leaf spot on wheat); format: in vivo; conditions: wheat plants cv. Arina, spray 0.02% active ingredient, inoculated one day after application, assessed 11 days after inoculation
Description: Action Against Septoria nodorum/wheat (Septoria Leaf Spot on Wheat)
1 week old wheat plants cv. […] One day after application wheat plants are inoculated by spraying a spore suspension (5×10^5 conidia/ml) on the test plants. After an incubation period of 1 day at 20° C. and 95% r. h. plants are kept for 10 days at 20° C. and 60% r.h. in a greenhouse. The disease incidence is assessed 11 days after inoculation.

Structure (SMILES)	efficacy (disease incidence) [1]	efficacy (disease incidence) [2]	efficacy (disease incidence) [3]	efficacy (disease incidence) [4]	efficacy (disease incidence) [5]	efficacy (disease incidence) [6]	efficacy (disease incidence) [7]	efficacy (disease incidence) [8]	melting point [°C]
Cc1cn(C)cc1C(=O)Nc1ccccc1-c1ccc(F)cc1 [Compound 1.25]	strong efficacy	strong efficacy	strong efficacy	strong efficacy	strong efficacy	strong efficacy	strong efficacy	strong efficacy	148 to 149
CCc1cn(CC)cc1C(=O)Nc1ccccc1-c1ccc(F)cc1 [Compound 1.266]	strong efficacy	strong efficacy	strong efficacy	strong efficacy	strong efficacy	strong efficacy	strong efficacy	strong efficacy	–
CC(C)c1cn(C)cc1C(=O)Nc1ccccc1-c1ccc(Cl)cc1 [Compound 1.268]	strong efficacy	strong efficacy	strong efficacy	strong efficacy	strong efficacy	strong efficacy	strong efficacy	strong efficacy	–
CC(C)c1cn(C)cc1C(=O)Nc1ccccc1-c1ccc(F)cc1 [Compound 1.269]	strong efficacy	strong efficacy	strong efficacy	strong efficacy	strong efficacy	strong efficacy	strong efficacy	strong efficacy	–
CCn1cc(C(=O)Nc2ccccc2-c2ccc(Cl)cc2)c(C(C)C)c1 [Compound 1.271]	strong efficacy	strong efficacy	strong efficacy	strong efficacy	strong efficacy	strong efficacy	strong efficacy	strong efficacy	–
CCn1cc(C(=O)Nc2ccccc2-c2ccc(F)cc2)c(C(C)C)c1 [Compound 1.272]	strong efficacy	strong efficacy	strong efficacy	strong efficacy	strong efficacy	strong efficacy	strong efficacy	strong efficacy	–
Cc1cn(C)cc1C(=O)Nc1ccsc1-c1ccc(Cl)cc1 [Compound 2.23]	strong efficacy	strong efficacy	strong efficacy	strong efficacy	strong efficacy	strong efficacy	strong efficacy	strong efficacy	–
Cn1cc(C(=O)Nc2ccsc2-c2ccc(Cl)cc2)c(C(F)(F)C(F)(F)F)c1 [Compound 2.190]	strong efficacy	strong efficacy	strong efficacy	strong efficacy	strong efficacy	strong efficacy	strong efficacy	strong efficacy	–
Cn1cc(C(=O)Nc2ccsc2-c2ccc(F)cc2)c(C(F)(F)C(F)(F)F)c1 [Compound 2.192]	strong efficacy	strong efficacy	strong efficacy	strong efficacy	strong efficacy	strong efficacy	strong efficacy	strong efficacy	–
Cc1cn(C)cc1C(=O)Nc1snnc1-c1ccc(F)cc1 [Compound 4.12]	strong efficacy	strong efficacy	strong efficacy	strong efficacy	strong efficacy	strong efficacy	strong efficacy	strong efficacy	–
Cc1cn(C)cc1C(=O)Nc1cnccc1-c1ccc(Cl)cc1 [Compound 6.10]	strong efficacy	strong efficacy	strong efficacy	strong efficacy	strong efficacy	strong efficacy	strong efficacy	strong efficacy	–
Cc1cn(C)cc1C(=O)Nc1cnccc1-c1ccc(F)cc1 [Compound 6.12]	strong efficacy	strong efficacy	strong efficacy	strong efficacy	strong efficacy	strong efficacy	strong efficacy	strong efficacy	–
Cn1cc(C(=O)Nc2cnccc2-c2ccc(Cl)cc2)c(C2CC2)c1 [Compound 6.49]	strong efficacy	strong efficacy	strong efficacy	strong efficacy	strong efficacy	strong efficacy	strong efficacy	strong efficacy	–
Cn1cc(C(=O)Nc2cnccc2-c2ccc(F)cc2)c(C2CC2)c1 [Compound 6.51]	strong efficacy	strong efficacy	strong efficacy	strong efficacy	strong efficacy	strong efficacy	strong efficacy	strong efficacy	–
